In ChEMBL document CHEMBL5325431, “Synthesis of thieno[3,2-e]pyrrolo[1,2-a]pyrimidine derivatives and their precursors containing 2-aminothiophenes fragments as anticancer agents for therapy of pulmonary metastatic melanoma” (Eur J Med Chem, 2023):

Legend:
B16-F10 [1] = assay: Cytotoxicity against mouse B16-F10 cells assessed as reduction in cell viability at 5.5 uM incubated for 24 hrs by alamarblue staining based assay relative to control; assay type: functional
B16-F10 [2] = assay: Induction of apoptosis in mouse B16-F10 cells assessed as late apoptotic cells at 5 uM measured after 48 hrs by Annexin V-FITC/7-AAD staining based flow cytometric analysis relative to control; assay type: functional
4T1 = assay: Cytotoxicity against mouse 4T1 cells assessed as cell survival incubated for 24 hrs by alamarblue staining based analysis; assay type: functional; settings: 4T1, 24 h
[3] = Toxicity in C57BL/6 mouse implanted with mouse B16-F10 cells assessed as liver damage at 9 to 9.5 mg/kg, ip by H and E staining based analysis; assay type: organism-based; settings: in vivo, dose 9-9.5 mg/kg
B16-F10 [4] = assay: Induction of apoptosis in mouse B16-F10 cells assessed as early apoptotic cells at 20 uM measured after 48 hrs by Annexin V-FITC/7-AAD staining based flow cytometric analysis relative to control; assay type: functional
B16-F10 [5] = assay: Induction of apoptosis in mouse B16-F10 cells assessed as necrotic cells at 10 uM measured after 48 hrs by Annexin V-FITC/7-AAD staining based flow cytometric analysis relative to control; assay type: functional
B16-F10 [6] = assay: Cytotoxicity against mouse B16-F10 cells assessed as reduction in cell viability at 8.3 uM incubated for 24 hrs by alamarblue staining based assay relative to control; assay type: functional
B16-F10 [7] = assay: Induction of apoptosis in mouse B16-F10 cells assessed as viable cells at 5 uM measured after 48 hrs by Annexin V-FITC/7-AAD staining based flow cytometric analysis relative to control; assay type: functional; settings: read-out: Activity
B16-F10 [8] = assay: Cytotoxicity against mouse B16-F10 cells assessed as reduction in cell viability at 0.2 to 1.5 uM incubated for 24 hrs by alamarblue staining based assay relative to control; assay type: functional; settings: dose 0.2-1.5 µM
B16-F10 [9] = assay: Induction of apoptosis in mouse B16-F10 cells assessed as early apoptotic cells at 5 uM measured after 48 hrs by Annexin V-FITC/7-AAD staining based flow cytometric analysis relative to control; assay type: functional
B16-F10 [10] = assay: Induction of apoptosis in mouse B16-F10 cells assessed as necrotic cells at 20 uM measured after 48 hrs by Annexin V-FITC/7-AAD staining based flow cytometric analysis relative to control; assay type: functional
B16-F10 [11] = assay: Cytotoxicity against mouse B16-F10 cells assessed as reduction in cell viability at 8.31 uM incubated for 24 hrs by alamarblue staining based assay relative to control; assay type: functional
B16-F10 [12] = assay: Cytotoxicity against mouse B16-F10 cells assessed as reduction in cell viability at 1.5 uM incubated for 24 hrs by alamarblue staining based assay relative to control; assay type: functional

Row | SMILES | Activity (B16-F10 [1]) [%] | Activity (B16-F10 [2]) [%] | IC50 (4T1) [µM] | Activity [3] | Activity (B16-F10 [4]) [%] | Activity (B16-F10 [5]) [%] | Activity (B16-F10 [6]) [%] | viability at 5 µM (B16-F10 [7]) [%] | Activity (B16-F10 [8]) [%] | Activity (B16-F10 [9]) [%] | Activity (B16-F10 [10]) [%] | Activity (B16-F10 [11]) [%] | Activity (B16-F10 [12]) [%]
1 | CCOC(=O)c1c(N2C(N)=C(C#N)C(=O)/C2=C\C(=O)c2ccc(C)cc2)sc2c1CCCCC2 | 20 | 30.4 | 6.5 | Non-Toxic | 1 | 21.8 | 48 | 35.4 | 40 | 1.4 | 2.3 | – | –
2 | CCOC(=O)c1c(NC(=C\C(=O)c2ccc(OC)cc2)/C([O-])=C(\C#N)C(N)=O)sc2c1CCCC2.[K+] | – | 43.5 | 3.8 | Non-Toxic | 0.8 | 14 | – | 5.8 | – | 2.2 | 3.8 | 20 | ~80
3 | COc1ccc(C(=O)/C=C2\C(=O)C(C#N)=C3NC(=O)c4c(sc5c4CCCCC5)N32)cc1 | 20 | 30.8 | 8.8 | Non-Toxic | 0.3 | 10.7 | – | 63.2 | 90 | 2.8 | 7.4 | – | –
